Patent publication US8222420B2, “Nitrogen-containing compounds and harmful organism control agents” (Nippon Soda Co., Ltd., priority 2009, dated 2012)

Tests used:
[1] = tested on: Tetranychus urticae resistant to organic phosphorous agents; assay: Efficacy against Tetranychus urticae (spray on kidney bean plants); assay type: in vivo; settings: 500 ppm wettable powder sprayed on kidney bean plants with female adults; 25° C., humidity 65%; 3 days later
Text: After inoculating the first true leaves of kidney bean plants planted in a no. 3 pot for which 7 to 10 days had elapsed since germination with 17 female adult Tetranychus urticae resistant to organic phosphorous agents, a chemical liquid diluted with water to a compound concentration of 500 ppm was sprayed onto the kidney bean plants in accordance with the formula of the wettable powder indicated in the aforementioned Preparation Example 1. The kidney bean plants were placed in a constant temperature chamber at a temperature of 25° C. and humidity of 65% and insect mortality rate was investigated 3 days later. The test was repeated twice.

Aphis gossypii = assay: Efficacy against Aphis gossypii (spray on infested cucumber plants); assay type: in vivo; settings: 500 ppm emulsion sprayed on cucumber plants infested with nymphs; 25° C., humidity 65%; 5 days later
Text: Cucumber plants planted in a no. 3 pot for which 10 days had elapsed since germination were inoculated with adult Aphis gossypii. The adult insects were removed after 1 day, and a chemical liquid diluted with water to a compound concentration of 500 ppm was sprayed onto the cucumber plants infested with nymphs laid by the adults in accordance with the emulsion formula indicated in the aforementioned Preparation Example 2. The cucumber plants were placed in a constant temperature chamber at a temperature of 25° C. and humidity of 65% and insect viability was investigated 5 days later followed by determination of insect mortality rate. The test was repeated twice.

Row | Compound | insect mortality rate [1] | insect mortality rate (Aphis gossypii)
1 | Cc1cc(Cl)ccc1N=CN(C)C [chlordimeform] | 40% | –
2 | Cc1nc(N(C)C)nc(OC(=O)N(C)C)c1C [pirimicarb] | – | 9%
